The species entered for one experiment is Oryctolagus cuniculus. As to the kind of experiment: Compound was evaluated for its concentration required to inhibit the rabbit liver F16BPase. In kind it is functional.
Experiment [1] concerns the target T1, Fructose-1,6-bisphosphatase 1 (Sus scrofa, UniProt P00636).
T1 sequence (P00636 whole entry): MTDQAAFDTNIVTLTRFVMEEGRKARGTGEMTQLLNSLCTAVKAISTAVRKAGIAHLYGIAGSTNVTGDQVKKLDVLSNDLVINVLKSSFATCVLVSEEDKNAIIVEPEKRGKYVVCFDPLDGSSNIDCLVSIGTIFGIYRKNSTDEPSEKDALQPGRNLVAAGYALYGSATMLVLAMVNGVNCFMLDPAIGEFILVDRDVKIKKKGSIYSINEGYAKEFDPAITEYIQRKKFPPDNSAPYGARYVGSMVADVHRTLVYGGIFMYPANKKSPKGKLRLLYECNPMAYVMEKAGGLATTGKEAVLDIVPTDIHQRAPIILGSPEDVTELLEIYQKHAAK
As to the kind of experiment: Compound was evaluated for its concentration required to inhibit the porcine kidney F16BPase.

In experiment [2] the target is T2, Fructose-1,6-bisphosphatase 1 (Rattus norvegicus, UniProt P19112).
T2 sequence (P19112 whole entry): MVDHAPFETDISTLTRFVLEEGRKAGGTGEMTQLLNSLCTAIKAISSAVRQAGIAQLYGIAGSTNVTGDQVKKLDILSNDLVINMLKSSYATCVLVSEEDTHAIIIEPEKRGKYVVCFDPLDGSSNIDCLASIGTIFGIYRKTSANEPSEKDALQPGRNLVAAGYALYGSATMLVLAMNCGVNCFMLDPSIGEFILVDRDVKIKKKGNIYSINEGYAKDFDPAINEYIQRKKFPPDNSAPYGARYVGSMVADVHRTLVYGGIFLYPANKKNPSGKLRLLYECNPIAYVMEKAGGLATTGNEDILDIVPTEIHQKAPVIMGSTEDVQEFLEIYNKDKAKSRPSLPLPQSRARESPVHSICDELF
As to the kind of experiment: Compound was evaluated for its concentration required to inhibit the rat liver F16BPase.

Experiment [3] deals with T3, Fructose-1,6-bisphosphatase 1 (Homo sapiens, UniProt P09467).
T3 sequence (P09467 whole entry): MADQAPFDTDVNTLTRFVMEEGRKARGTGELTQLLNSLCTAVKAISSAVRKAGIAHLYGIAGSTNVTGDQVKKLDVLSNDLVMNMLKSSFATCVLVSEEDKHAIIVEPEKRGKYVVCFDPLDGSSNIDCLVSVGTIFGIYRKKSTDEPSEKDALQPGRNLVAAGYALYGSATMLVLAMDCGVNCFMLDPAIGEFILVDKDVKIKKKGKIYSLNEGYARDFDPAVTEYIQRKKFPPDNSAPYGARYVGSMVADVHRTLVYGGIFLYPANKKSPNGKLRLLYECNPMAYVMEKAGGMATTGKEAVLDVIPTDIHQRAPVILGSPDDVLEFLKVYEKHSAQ
As to the kind of experiment: Concentration required to inhibit the human liver recombinant fructose-1,6-bisphosphatase.

This is an account of results in ChEMBL document CHEMBL1134043, “Allosteric inhibition of fructose-1,6-bisphosphatase by anilinoquinazolines” (Bioorg Med Chem Lett, 2001).

The IC50 is the concentration that inhibits the measured activity by half.

Where only a bound is given, the exact number is not on record here.

In the case of `COc1cc2ncnc(Nc3cccc(Br)c3)c2cc1OC`, the IC50 (in the experiment filed under Oryctolagus cuniculus; in experiment [1]; in experiment [2]) was above 10 µM throughout.
With `CCOc1cc2ncnc(Nc3cccc(F)c3)c2cc1OCC`, the IC50 in experiment [3] was determined as 9.2 µM.
On the same count and under the same terms, then `COc1cc2nc(C)nc(Nc3cccc(Br)c3)c2cc1OC`, with 4.5 µM.
For the compound `COc1cc2ncnc(Nc3ccc(F)c(Cl)c3)c2cc1OC`, the IC50 in experiment [3] was 0.29 µM; in the experiment filed under Oryctolagus cuniculus, above 10 µM; in experiment [1], 0.34 µM; in experiment [2], above 10 µM.
With `CCOc1cc2ncnc(Nc3ccc(C)c(Cl)c3)c2cc1OCC`, in experiment [3], the IC50 was above 10 µM.
Regarding `O=C(O)c1ccc2c(Nc3cccc(Br)c3)ncnc2c1`, the IC50 in experiment [3] was above 10 µM.
On the same count and under the same terms, then `CC(C)Oc1ccc2ncnc(Nc3cccc(Br)c3)c2c1`, with above 10 µM.
For the compound `C#Cc1cccc(Nc2ncnc3cc(OC)c(OC)cc23)c1`, the IC50 in experiment [3] was 0.9 µM; in the experiment listed under Oryctolagus cuniculus it was above 10 µM; in experiment [1], 1.6 µM; in experiment [2], above 10 µM.
Regarding `CCOc1cc2nc(CN(CC)CC)nc(Nc3cccc(Br)c3)c2cc1OCC`, in experiment [3], the IC50 was above 10 µM.
With `CCOc1cc2nc(CN3CCOCC3)nc(Nc3cccc(Br)c3)c2cc1OCC`, the IC50 in experiment [3] is above 10 µM.
As for `CCOc1cc2ncnc(Nc3cccc(Br)c3)c2cc1OCC`, the IC50 in experiment [3] was 1.7 µM; in the experiment listed under Oryctolagus cuniculus, above 10 µM; in experiment [1], above 10 µM; in experiment [2] it was above 10 µM.
`CCN(CC)c1nc(Nc2cccc(Br)c2)c2cc(OC)c(OC)cc2n1`: the IC50 in experiment [3] is above 10 µM.
The same measure, in the same setting: the value for `CCOc1cc2nc(-c3ccccc3)nc(Nc3cccc(Br)c3)c2cc1OCC` was above 10 µM; that for `CCOc1cc2nc(Cc3ccccc3)nc(Nc3cccc(Br)c3)c2cc1OCC` was above 10 µM.
Same read-out and setting: then `C#Cc1cccc(Nc2ncnc3cc(OCC)c(OCC)cc23)c1`, with 2.4 µM; and `CCCCOc1ccc2ncnc(Nc3cccc(Br)c3)c2c1`, with above 10 µM; and `CCOc1cc2nc(CS(C)(=O)=O)nc(Nc3cccc(Br)c3)c2cc1OCC`, with above 10 µM.
Same read-out and setting: the value for `Nc1cc2c(Nc3cccc(Br)c3)ncnc2cc1Cl` was 11.9 µM; that for `CCOc1cc2ncnc(Nc3ccc(Cl)c(Cl)c3)c2cc1OCC` was above 10 µM.
In the case of `CCOc1cc2ncnc(Nc3ccc(F)c(Cl)c3)c2cc1OCC`, the half-inhibitory concentration (IC50) in experiment [3] was 0.53 µM; in the experiment listed under Oryctolagus cuniculus it was above 10 µM; in experiment [1] it was 3.1 µM; in experiment [2] it was above 10 µM.
Regarding `Brc1cccc(Nc2ncnc3cc4ccccc4cc23)c1`, the IC50 in experiment [3] came out at 7.5 µM.
On the same count and under the same terms, the value for `CCOc1cc2nc(CC(C)C)nc(Nc3cccc(Br)c3)c2cc1OCC` was above 10 µM; that for `COCCOc1cc2c(Nc3cccc(Br)c3)ncnc2cc1OC` was 5.5 µM.
The same measure, in the same setting: the value for `COCCOc1cc2ncnc(Nc3cccc(Br)c3)c2cc1OCCOC` was above 10 µM.
`CCOc1cc2ncnc(Nc3cccc(Cl)c3)c2cc1OCC`: the IC50 in experiment [3] is 1.6 µM; in the experiment listed under Oryctolagus cuniculus it was above 10 µM; in experiment [1] it was 3.9 µM; in experiment [2], above 10 µM.
Consider `COc1cc2ncnc(Nc3cccc(Br)c3)c2cc1[N+](=O)[O-]`, for which the IC50 in experiment [3] was above 10 µM.
Same read-out and setting: then `CCOc1cc2ncnc(Nc3ccccc3)c2cc1OCC`, with above 10 µM.
For `C#Cc1cc(Nc2ncnc3cc(OC)c(OC)cc23)ccc1F`, the IC50 in experiment [3] was 0.25 µM; in the experiment listed under Oryctolagus cuniculus, above 10 µM; in experiment [1], 0.77 µM; in experiment [2], above 10 µM.
As to `COCCOc1ccc2ncnc(Nc3cccc(Br)c3)c2c1`, the IC50 in experiment [3] came out at 2.9 µM.
Take `CCOc1cc2ncnc(Nc3cccc(I)c3)c2cc1OCC`: the IC50 in experiment [3] is 2.1 µM.
On to `Brc1cccc(Nc2ncnc3cc4nc[nH]c4cc23)c1`, for which the IC50 in experiment [3] was 4 µM.
Same read-out and setting: the value for `O=[N+]([O-])c1cc2c(Nc3cccc(Br)c3)ncnc2cc1Cl` was above 10 µM.
For the compound `CCOc1cc2ncnc(Nc3cccc(Br)c3)c2cc1[N+](=O)[O-]`, the IC50 in experiment [3] stood at 3.6 µM.
`CCOc1cc2nc(CCl)nc(Nc3cccc(Br)c3)c2cc1OCC`: the IC50 in experiment [3] was above 10 µM.
As for `CCOc1cc2ncnc(Nc3cccc(C#N)c3)c2cc1OCC`, in experiment [3], the IC50 was above 10 µM.
On to `COc1cc2ncnc(Nc3cccc(Cl)c3)c2cc1OC` [TYRPHOSTIN AG-1478], for which the IC50 is 1.3 µM in experiment [3], above 10 µM in the experiment filed under Oryctolagus cuniculus, above 10 µM in experiment [1] and above 10 µM in experiment [2].
